Reference: US9427415B2, “Methods and compositions for modifying sensorial perception” (The Procter & Gamble Company, priority 2014, dated 2016)
Read-outs that look alike come from different tables or passages of the source.

What was measured:
TRPA1V1 = test: Intracellular calcium (Fluo-4, FLIPR) activation of TRPA1V1 cells (co-expressing TRPA1 and TRPV1) by GRAS compounds; type: cell-based, human;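 also: HEK293 cells co-expressing TRPA1 and TRPV1, fluorescence read at 488/514 nm after baseline subtraction, recorded every 2 s over 10 min, ionomycin 10 µM and buffer as controls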
human TRPV1 = molecular target: T1, human TRPV1 (Homo sapiens, UniProt Q8NER1, M315I/T336M); test: Intracellular calcium (Fluo-4, FLIPR) activation of TRPV1 cells by GRAS compounds; type: cell-based; conditions: relative to capsaicin 350 nM; for activation at 1000 µM / V1 activation, % of agonist value: 1 mM;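 as to all read-outs here: TRPV1-expressing cells, FLIPR fluorescence at 488/514 nm with baseline subtracted, sampled every 2 s for 10 min after adding compound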
T1 construct: expressed in transfected cells; pcDNA3 control cells
T1 sequence (Q8NER1 whole entry M315I/T336M): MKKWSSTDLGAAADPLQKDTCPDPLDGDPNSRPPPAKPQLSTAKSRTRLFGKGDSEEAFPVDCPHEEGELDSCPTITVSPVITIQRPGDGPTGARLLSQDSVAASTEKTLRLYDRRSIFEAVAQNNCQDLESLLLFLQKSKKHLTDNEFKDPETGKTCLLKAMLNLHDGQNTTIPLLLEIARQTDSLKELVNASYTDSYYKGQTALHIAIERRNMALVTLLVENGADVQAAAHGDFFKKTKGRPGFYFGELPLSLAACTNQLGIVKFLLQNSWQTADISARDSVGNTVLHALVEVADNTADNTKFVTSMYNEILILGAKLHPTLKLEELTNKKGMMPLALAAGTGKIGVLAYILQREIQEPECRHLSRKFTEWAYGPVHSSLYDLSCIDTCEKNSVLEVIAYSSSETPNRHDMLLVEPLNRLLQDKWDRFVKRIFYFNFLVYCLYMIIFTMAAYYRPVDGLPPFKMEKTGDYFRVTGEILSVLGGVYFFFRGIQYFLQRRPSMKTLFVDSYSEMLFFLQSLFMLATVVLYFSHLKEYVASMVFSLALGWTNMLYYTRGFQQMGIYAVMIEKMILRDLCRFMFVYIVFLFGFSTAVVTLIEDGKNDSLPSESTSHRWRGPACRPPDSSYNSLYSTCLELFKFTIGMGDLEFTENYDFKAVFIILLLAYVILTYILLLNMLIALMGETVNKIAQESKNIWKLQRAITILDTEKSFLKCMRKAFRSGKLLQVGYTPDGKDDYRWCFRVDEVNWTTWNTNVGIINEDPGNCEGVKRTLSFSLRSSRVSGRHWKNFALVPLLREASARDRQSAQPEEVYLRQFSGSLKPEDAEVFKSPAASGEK

human TRPA1 = molecular target: T2, human TRPA1 (Homo sapiens, UniProt O75762, K186N/R3C/R58T); test: Intracellular calcium (Fluo-4, FLIPR) activation of TRPA1 cells by GRAS compounds; type: cell-based; conditions: 1 mM, relative to AITC 30 μM; for activation at 1000 µM: read-out: A1 activation, % of agonist value;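 as to all read-outs here: TRPA1-expressing cells, fluorescence read on a FLIPR Tetra (ex 488 nm, em 514 nm) every 2 s for 10 min after compound addition, baseline subtracted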
T2 construct: expressed in transfected cells; pcDNA3 control cells
T2 sequence (O75762 whole entry R3C/R58T/K186N): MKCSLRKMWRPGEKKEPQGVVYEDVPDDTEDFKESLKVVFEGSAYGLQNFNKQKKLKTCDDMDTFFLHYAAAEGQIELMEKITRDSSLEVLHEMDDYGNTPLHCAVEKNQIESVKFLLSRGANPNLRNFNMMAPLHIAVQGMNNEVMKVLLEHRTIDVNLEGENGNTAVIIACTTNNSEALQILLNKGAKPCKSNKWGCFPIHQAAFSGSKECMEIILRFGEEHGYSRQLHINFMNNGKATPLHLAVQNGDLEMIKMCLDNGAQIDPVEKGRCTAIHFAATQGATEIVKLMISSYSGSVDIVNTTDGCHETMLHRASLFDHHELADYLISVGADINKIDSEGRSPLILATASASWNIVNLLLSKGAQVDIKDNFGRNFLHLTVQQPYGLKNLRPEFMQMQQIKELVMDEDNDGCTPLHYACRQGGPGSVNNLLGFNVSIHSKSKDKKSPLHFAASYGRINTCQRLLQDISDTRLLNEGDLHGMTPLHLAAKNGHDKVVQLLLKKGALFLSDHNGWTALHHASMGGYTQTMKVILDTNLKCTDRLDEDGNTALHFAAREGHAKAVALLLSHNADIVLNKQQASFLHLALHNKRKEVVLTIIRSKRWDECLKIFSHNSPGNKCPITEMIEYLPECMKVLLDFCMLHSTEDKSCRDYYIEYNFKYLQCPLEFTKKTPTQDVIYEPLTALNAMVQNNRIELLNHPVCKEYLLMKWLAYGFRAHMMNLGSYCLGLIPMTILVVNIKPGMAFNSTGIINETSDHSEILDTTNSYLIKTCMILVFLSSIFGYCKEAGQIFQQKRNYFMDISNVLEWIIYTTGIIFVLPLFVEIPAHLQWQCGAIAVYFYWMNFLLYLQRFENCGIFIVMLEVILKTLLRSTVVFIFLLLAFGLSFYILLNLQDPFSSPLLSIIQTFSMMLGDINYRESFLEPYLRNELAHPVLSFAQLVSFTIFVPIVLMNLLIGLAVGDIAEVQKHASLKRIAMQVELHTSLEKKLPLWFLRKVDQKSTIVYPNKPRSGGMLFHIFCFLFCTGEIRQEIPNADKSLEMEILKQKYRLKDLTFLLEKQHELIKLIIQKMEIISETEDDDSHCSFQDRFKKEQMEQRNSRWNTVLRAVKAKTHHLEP

[1] = Table 1(g), 1 mM, relative to capsaicin 350 nM
[2] = Table 1(g), read-out: V1 activation, % of agonist value
[3] = Table 1(h), 1 mM, relative to capsaicin 350 nM
[4] = Table 1(h), read-out: V1 activation, % of agonist value
[5] = Table 1(f), 1 mM, relative to capsaicin 350 nM
[6] = Table 1(f), read-out: V1 activation, % of agonist value
[7] = Table 1(c), 1 mM, relative to AITC 30 μM
[8] = Table 1(e), 1 mM, relative to AITC 30 μM
[9] = Table 1(d), 1 mM, relative to AITC 30 μM

CC1SCCS1 [1,3-Dithiolane, 2-methyl-]
A1V1 activation, % of agonist value (TRPA1V1; [1]): 119.9% | activation at 1000 µM (human TRPV1; [2]): 66.2%

C=CCSCC=C [1-Propene, 3,3′-thiobis-]
A1V1 activation, % of agonist value (TRPA1V1; [1]): 108.4% | activation at 1000 µM (human TRPV1; [2]): 47.3%

CCCCCCCC=CC=CC=O [2,4-Dodecadienal]
A1V1 activation, % of agonist value (TRPA1V1; Table 1(h), 100 μM (marked *), relative to capsaicin 350 nM): 53.5% | activation at 100 µM (human TRPV1; Table 1(h), 100 μM (marked *), read-out: V1 activation, % of agonist value): 199%

Cc1ccc(C)c(O)c1 [2,5-Dimethylphenol]
A1V1 activation, % of agonist value (TRPA1V1; [3]): 34.2% | activation at 1000 µM (human TRPV1; [4]): 81.2%

Cc1cccc(C)c1O [2,6-Dimethylphenol]
A1V1 activation, % of agonist value (TRPA1V1; [3]): 45.8% | activation at 1000 µM (human TRPV1; [4]): 72.1%

O=CC(=Cc1ccco1)c1ccccc1 [2-Furanacrolein, alpha-phenyl-]
A1V1 activation, % of agonist value (TRPA1V1; [5]): 66.2% | V1 activation, % of agonist value (human TRPV1; Table 1(f)): 55.7%

CC(C)c1ccccc1O [2-Isopropylphenol]
A1V1 activation, % of agonist value (TRPA1V1; [3]): 83.5% | activation at 1000 µM (human TRPV1; [4]): 108%

Cc1ccc(C(C)CC=O)o1 (stereo not shown) [3-(5-Methyl-2-furyl)butanal]
A1V1 activation, % of agonist value (TRPA1V1; [5]): 91.6% | activation at 1000 µM (human TRPV1; [6]): 103%

CC(=O)c1cc(C)sc1C [3-Acetyl-2,5-dimethylthiophene]
A1V1 activation, % of agonist value (TRPA1V1; [5]): 84.9% | activation at 1000 µM (human TRPV1; [6]): 95.1%

CCCCCCCC1CC(C)OC1=O (stereo not shown) [3-Heptyldihydro-5-methylfuran-2(3H)-one]
A1V1 activation, % of agonist value (TRPA1V1; [5]): 40.5% | activation at 1000 µM (human TRPV1; [6]): 45.5%

CCC(C)(O)CCc1ccccc1 (stereo not shown) [3-Methyl-1-phenyl-3-pentanol]
A1V1 activation, % of agonist value (TRPA1V1; [3]): 70.5% | activation at 1000 µM (human TRPV1; [4]): 100%

CC(=O)CCc1ccc(OC(C)=O)cc1 [4-(p-Acetoxyphenyl)-2-butanone]
A1V1 activation, % of agonist value (TRPA1V1; [1]): 91.8% | activation at 1000 µM (human TRPV1; [2]): 58.9%

CCCCCCC1CCC(=O)O1 (stereo not shown) [4-Decanolide]
A1V1 activation, % of agonist value (TRPA1V1; [5]): 35.8% | activation at 1000 µM (human TRPV1; [6]): 40.9%

CCc1ccc(C=O)cc1 [4-Ethylbenzaldehyde]
A1V1 activation, % of agonist value (TRPA1V1; [1]): 120.3% | activation at 1000 µM (human TRPV1; [2]): 56.3%

CC(=O)c1ccc(C)cc1 [4′-Methylacetophenone]
A1V1 activation, % of agonist value (TRPA1V1; [1]): 136.6% | activation at 1000 µM (human TRPV1; [2]): 55%

Cc1ccc(C=O)s1 [5-Methyl-2-thiophenecarboxaldehyde]
A1V1 activation, % of agonist value (TRPA1V1; [1]): 111.4% | activation at 1000 µM (human TRPV1; [2]): 58.9%

CCCCCc1cccc(=O)o1 [6-Pentyl-alpha-pyrone]
A1V1 activation, % of agonist value (TRPA1V1; [1]): 95.2% | V1 activation, % of agonist value (human TRPV1; Table 1(g)): 66.1%

C/C=C/C=C/C(=O)OC [Methyl sorbate]
A1V1 activation, % of agonist value (TRPA1V1; [7]): 81.15% | A1V1 activation, % of agonist value (TRPA1V1; [8]): 83.3% | activation at 1000 µM (human TRPA1; Table 1(c)): 76% | activation at 1000 µM (human TRPA1; Table 1(e)): 46.4%

COC(=O)c1ccc(O)cc1 [Methylparaben]
A1V1 activation, % of agonist value (TRPA1V1; [7]): 66.33% | activation at 1000 µM (human TRPA1; Table 1(c)): 62%

COC(=O)c1ccccc1N(C)C [N,N-Dimethylanthranilic acid methyl ester]
A1V1 activation, % of agonist value (TRPA1V1; [7]): 77.15% | activation at 1000 µM (human TRPA1; Table 1(c)): 74.2%

CCCCCCCCCO [Nonyl alcohol]
A1V1 activation, % of agonist value (TRPA1V1; [7]): 69.4% | activation at 1000 µM (human TRPA1; Table 1(c)): 71.1%

COc1ccccc1C=CC=O [O-Methoxycinnamaldehyde]
A1V1 activation, % of agonist value (TRPA1V1; [7]): 55.99% | A1 activation, % of agonist value (human TRPA1; Table 1(c)): 65.3%

CC(=O)OCc1ccccc1C [O-Methylbenzyl acetate]
A1V1 activation, % of agonist value (TRPA1V1; [7]): 77.24% | A1 activation, % of agonist value (human TRPA1; Table 1(c)): 87.22%

Cc1ccccc1OC(=O)C(C)C [O-Tolyl isobutyrate]
A1V1 activation, % of agonist value (TRPA1V1; [7]): 57.76% | A1 activation, % of agonist value (human TRPA1; Table 1(c)): 49.37%

CCCCCCCCOC(=O)c1ccco1 [Octyl 2-furoate]
A1V1 activation, % of agonist value (TRPA1V1; [9]): 40.60% | activation at 1000 µM (human TRPA1; Table 1(d)): 54.3%

S=C=NCCc1ccccc1 [Phenethyl isothiocyanate]
A1V1 activation, % of agonist value (TRPA1V1; [7]): 81.46% | activation at 1000 µM (human TRPA1; Table 1(c)): 92%

CC(C)C(=O)OCCOc1ccccc1 [Phenoxyethyl isobutyrate]
A1V1 activation, % of agonist value (TRPA1V1; [9]): 53.9% | activation at 1000 µM (human TRPA1; Table 1(d)): 81%

CCC(=O)OCCOc1ccccc1 [Phenoxyethyl propionate]
A1V1 activation, % of agonist value (TRPA1V1; [7]): 79.34% | activation at 1000 µM (human TRPA1; Table 1(c)): 65.5%

CSCCCN=C=S [Propane, 1-isothiocyanato-3-(methylthio)-]
A1V1 activation, % of agonist value (TRPA1V1; [8]): 114.6% | activation at 1000 µM (human TRPA1; Table 1(e)): 81.6%

CCCOC(=O)c1ccccc1 [Propyl benzoate]
A1V1 activation, % of agonist value (TRPA1V1; [9]): 25.7% | activation at 1000 µM (human TRPA1; Table 1(d)): 40.7%

CC1=C(/C=C/C(C)=C/C=C/C(C)=C/CO)C(C)(C)CCC1 [Retinol]
A1V1 activation, % of agonist value (TRPA1V1; [7]): 67.79% | activation at 1000 µM (human TRPA1; Table 1(c)): 80%
